“Also recorded” adds a separate entry of the source.
Legend:
PI3K (p85) = assay: Co-immunoprecipitation of the regulatory subunit of PI3K (p85) with αPDGFR mutants in F cells; type: cell-based, mouse; conditions: 50 ng/ml PDGF-BB, 5 minutes
Description: (§1) The ability of the αPDGFR mutants to undergo ligand dependent tyrosine phosphorylation and to associate with signaling enzymes was then tested. F cells expressing various αPDGFR mutants were grown to subconfluence and serum starved overnight. Cells were either left resting (−) or stimulated with 50 ng/ml PDGF-BB (+) for 5 minutes, and lysed. The αPDGFR was immunoprecipitated with αPDGFR antibody, as described above, and the resulting immunoprecipitates were resolved by 7.5% SDS-PAGE and transferred onto Immobilon. The segment of the blot containing the αPDGFR was first blotted with anti-phosphotyrosine antibodies, then stripped and reprobed with an anti-αPDGFR antibody. Portions of the membrane that contained the proteins of the appropriate molecular mass were immunoblotted for PLCγ, the regulatory subunit of PI3K (p85), or SHP-2. Crude rabbit anti-p85 antibody is from Dr. A. Toker (Beth Israel Hospital/Harvard Medical School, Boston, Mass.). The monoclonal antibodies against PLCγ and SHP-2 were purchased from Upstate Biotechnology Inc.

SHP-2 = assay: Co-immunoprecipitation of SHP-2 with αPDGFR mutants in F cells; type: cell-based, mouse; conditions: 50 ng/ml PDGF-BB, 5 minutes
Description: as §1

Src family kinases = conditions: cited from earlier work
rabbit eyes = conditions: previously found (Rosenkranz et al. 2000); cited from earlier work
PLCγ = assay: Co-immunoprecipitation of PLCγ with αPDGFR mutants in F cells; type: cell-based, mouse; conditions: 50 ng/ml PDGF-BB, 5 minutes
Description: as §1

F cells = assay: Collagen gel contraction assay of F cells expressing αPDGFR mutants; type: cell-based, mouse; conditions: PDGF-BB (50 ng/ml), 48 hours
Description: The contraction assay was based on a previously described reference, Skuta, G. et al. (1999) J. Biol. Chem. 274:30163, with the following modifications. Fα cells were suspended in 1.5 mg/ml of neutralized collagen I (Cohesion vitrogen 100, Palo Alto, Calif.) at a density of 10^6 cells/ml, and were transferred into the 24-well plate (Falcon, Franklyn Lakes, N.J.) that had been preincubated with phosphate-buffer saline (PBS) with 5 mg/ml of bovine serum albumin (BSA) overnight. The gel was solidified by incubating at 37° C. for 90 minutes, and then the well was flooded with DMEM+5 mg/ml of BSA supplemented with an amount of vitreous such that the final concentration of vitreous in the culture medium was 1, 5 or 20%. The gels were incubated at 37° C. with 5% CO2. The initial gel diameter was 15 mm. The media was replaced every 24 hours and the gel diameter was measured after 48 hours. The extent of contraction was calculated by subtracting the diameter of the well at 48 hours from the initial diameter (15 mm). Each experimental condition was assayed in triplicate, and at least three independent experiments were performed. Unpaired t-test was performed to detect statistic difference in contraction assay.
To determine the signaling pathways that drive contraction, cells expressing the αPDGFR mutants were subjected to the collagen gel contraction assay described above. Accordingly, F cells expressing the indicated αPDGFRs were subjected to the collagen gel assay in the presence of buffer, PDGF-BB (50 ng/ml), TGFβ1 (1 ng/ml), or FBS (10%). The data presented are the mean±standard deviation measured at the 48 hours time point. Each experimental condition was assayed in triplicate, and at least 3 independent experiments were performed.

## F72/74: αPDGFR mutant, Tyr to Phe substitution at 572 and 574
PI3K (p85)
  recruitment of PI3K / p85 (Properties): bind all of these signaling enzymes
SHP-2
  recruitment of SHP-2 (Properties): bind all of these signaling enzymes
Src family kinases
  recruitment or activation of Src family kinases (Properties): selectively fails to associate with Src family kinases; also recorded: Fails to recruit or activate
Rabbit eyes
  potential to induce PVR: induced PVR with slightly accelerated kinetics
PLCγ
  recruitment or activation of PLCγ (Properties): bind all of these signaling enzymes
F cells
  PDGF-dependent contraction: no effect on contraction

From patent US6667173B2, “Nucleic acids encoding platelet derived growth factor-alpha receptors” (The Schepens Eye Research Institute, priority 2000, dated 2003)
